For orientation: IC50 means the concentration that gives 50% inhibition.

Experiment [1] has as its system TNF-α release, human peripheral blood mononuclear cells (PBMC). Kind of experiment: TNF-α release in LPS-stimulated PBMC. It counts as cell-based. As to conditions: lipopolysaccharide stimulation for 18 hours, read-out: TNF-α IC50 range. As to the method: Human peripheral blood mononuclear cells (PBMC) were isolated from buffy coats. The blood is mixed with saline at a ratio of 1:1, and the PBMC were isolated using Lymphoprep Tubes™ (Nycomed, Norway). The PBMC were suspended in RPMI1640 with 0.5% human serum albumin, pen/strep and 2 mM L-glutamine at a concentration of 5×105 c/ml. The cells were pre-incubated for 30 minutes with the test compounds in 96 well tissue culture plates and stimulated for 18 hours with lipopolysaccharide […] (Sigma). TNF-α concentration in the supernatants was measured using homogeneous time-resolved fluorescence resonance (TR-FRET). The assay is quantified by measuring fluorescence at 665 nm (proportional to TNF-α concentration) and 620 nm (control).
Results were expressed as IC50 values calculated from inhibition curves using as positive controls the secretion in LPS stimulated wells and as negative controls the secretion in unstimulated cells.

Experiment [2] deals with human PDE4D catalytic domain (Homo sapiens (Human), UniProt Q08499). Kind of experiment: PDE4 assay (TR-FRET, cAMP cleavage). The format is biochemical. The settings on record: read-out: PDE4 IC50 range. As to the method: The human PDE4D catalytic domain (UniProt no. Q08499 [[…]]) was incubated with a mixture of non-labelled cAMP (cyclic adenosine monophosphate) and fluorescein amidite (FAM) conjugated cAMP and titrated test or reference compound. Following brief incubation the enzymatic reaction was stopped by addition of binding buffer containing nanoparticles with immobilized trivalent metal ions capable of binding 1) AMP phospho groups and 2) terbium (Tb) donor fluorophores. Subsequent excitation of the Tb donor triggers time-resolved FRET to adjacent FAM acceptor molecules resulting in light emission. In the presence of a PDE4 inhibitor, AMP generation was reduced resulting in a lower fluorescence signal. The cAMP phosphodiester is not bound by the detection system.
human PDE4D catalytic domain, sequence (Q08499 380-740 limits assumed): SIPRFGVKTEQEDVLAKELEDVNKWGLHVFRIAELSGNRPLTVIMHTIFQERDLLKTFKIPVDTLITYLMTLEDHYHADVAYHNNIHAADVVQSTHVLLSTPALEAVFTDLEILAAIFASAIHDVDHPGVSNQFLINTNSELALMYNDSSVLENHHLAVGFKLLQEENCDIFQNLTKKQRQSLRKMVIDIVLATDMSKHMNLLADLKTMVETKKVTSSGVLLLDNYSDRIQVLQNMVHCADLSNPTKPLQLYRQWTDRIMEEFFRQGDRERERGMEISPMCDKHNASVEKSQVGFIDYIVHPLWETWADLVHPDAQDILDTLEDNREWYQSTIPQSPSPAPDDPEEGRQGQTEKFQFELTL
The results were calculated as the molar concentrations resulting in 50% inhibition of the substrate cleavage compared to controls samples, and are expressed as IC50 (nM).
(In TR-FRET formats the signal depends on donor and acceptor labels being close together.)

As to `[O-][S+]1CCc2nc(N3CC(c4ccccc4)C3)nc(NC3CCOCC3)c21` (stereo in doubt) [Example 1, (R)-2-(3-Phenylazetidin-1-yl)-4-((tetrahydro-2H-pyran-4-yl)amino)-6,7-dihydrothieno[3,2-d]pyrimidine 5-oxide], the IC50 in experiment [1] and in experiment [2] was below 10 nM in each case. Regarding `[O-][S+]1CCc2nc(N3CC(Oc4ccccc4)C3)nc(NC3CCOCC3)c21` (stereo in doubt) [Example 2, (R)-2-(3-Phenoxyazetidin-1-yl)-4-((tetrahydro-2H-pyran-4-yl)amino)-6,7-dihydrothieno[3,2-d]pyrimidine 5-oxide], the IC50 in experiment [1] and in experiment [2] was below 10 nM in each case. As to `[O-][S+]1CCc2nc(N3CC(Oc4ccc(F)cc4)C3)nc(NC3CCOCC3)c21` (stereo in doubt) [Example 3, (R)-2-(3-(4-Fluorophenoxy)azetidin-1-yl)-4-((tetrahydro-2H-pyran-4-yl)amino)-6,7-dihydrothieno[3,2-d]pyrimidine 5-oxide], the IC50 in experiment [1] and in experiment [2] was below 10 nM in each case. For the molecule `[O-][S+]1CCc2nc(N3CC(c4ccc(F)cc4)C3)nc(NC34CC(C3)C4)c21` (stereo in doubt) [Example 9, (R)-4-(Bicyclo[1.1.1]pentan-1-ylamino)-2-(3-(4-fluorophenyl)azetidin-1-yl)-6,7-dihydrothieno[3,2-d]pyrimidine 5-oxide], the IC50 in experiment [1] and in experiment [2] was below 10 nM throughout.

As to `[O-][S+]1CCc2nc(N3CC(Oc4ccc(F)cc4)C3)nc(NC34CC(C3)C4)c21` (stereo in doubt) [Example 10, (R)-4-(Bicyclo[1.1.1]pentan-1-ylamino)-2-(3-(4-fluorophenoxy)azetidin-1-yl)-6,7-dihydrothieno[3,2-d]pyrimidine 5-oxide], the IC50 in experiment [1] and in experiment [2] was below 10 nM throughout. Regarding `[O-][S+]1CCc2nc(N3CC(c4ccccc4)C3)nc(NC34CC(C3)C4)c21` (stereo in doubt) [Example 11, (R)-4-(Bicyclo[1.1.1]pentan-1-ylamino)-2-(3-phenylazetidin-1-yl)-6,7-dihydrothieno[3,2-d]pyrimidine 5-oxide], the IC50 in experiment [1] and in experiment [2] was below 10 nM throughout.

For `[O-][S+]1CCc2nc(N3CC(c4ccccn4)C3)nc(NC34CC(C3)C4)c21` (stereo in doubt) [Example 12, (R)-4-(Bicyclo[1.1.1]pentan-1-ylamino)-2-(3-(pyridin-2-yl)azetidin-1-yl)-6,7-dihydrothieno[3,2-d]pyrimidine 5-oxide], the IC50 in experiment [1] and in experiment [2] was 10 to 50 nM in each case. For the molecule `[O-][S+]1CCc2nc(N3CC(c4cccc(F)c4)C3)nc(NC34CC(C3)C4)c21` (stereo in doubt) [Example 13, (R)-4-(Bicyclo[1.1.1]pentan-1-ylamino)-2-(3-(3-fluorophenyl)azetidin-1-yl)-6,7-dihydrothieno[3,2-d]pyrimidine 5-oxide], the IC50 in experiment [1] and in experiment [2] was below 10 nM in each case.

On to `[O-][S+]1CCc2nc(N3CC(Oc4cccnc4)C3)nc(NC34CC(C3)C4)c21` (stereo in doubt) [Example 14, (R)-4-(Bicyclo[1.1.1]pentan-1-ylamino)-2-(3-(pyridin-3-yloxy)azetidin-1-yl)-6,7-dihydrothieno[3,2-d]pyrimidine 5-oxide], for which the half-inhibitory concentration (IC50) in experiment [1] is 10 to 50 nM; in experiment [2] it was below 10 nM. In the case of `O=S1(=O)CCC(Nc2nc(N3CC(c4ccccc4)C3)nc3c2[S+]([O-])CC3)CC1` (stereo in doubt) [Example 17, (5R)—N-(1,1-Dioxothian-4-yl)-5-oxido-2-(3-phenylazetidin-1-yl)-6,7-dihydrothieno[3,2-d]pyrimidin-4-yl-amine], the IC50 in experiment [1] is below 10 nM. On the same count and under the same terms, the value for `O=S1(=O)CC(Nc2nc(N3CC(c4ccccc4)C3)nc3c2[S@+]([O-])CC3)C1` [Example 4, (R)-3-((5-Oxido-2-(3-phenylazetidin-1-yl)-6,7-dihydrothieno[3,2-d]pyrimidin-4-yl)amino)thietane 1,1-dioxide] was 10 to 50 nM. For `COC(=O)N1CC[C@H](Nc2nc(N3CC(c4ccccc4)C3)nc3c2[S@+]([O-])CC3)C1` [Example 5, Methyl (3S)-3-(((5R)-5-oxido-2-(3-phenylazetidin-1-yl)-6,7-dihydrothieno[3,2-d]pyrimidin-4-yl)amino)pyrrolidine-1-carboxylate], the IC50 in experiment [1] and in experiment [2] was 10 to 50 nM in each case. Regarding `COC(=O)N1CC[C@@H](Nc2nc(N3CC(c4ccccc4)C3)nc3c2[S@+]([O-])CC3)C1` [Example 6, Methyl (3R)-3-(((5R)-5-Oxido-2-(3-phenylazetidin-1-yl)-6,7-dihydrothieno[3,2-d]pyrimidin-4-yl)amino)pyrrolidine-1-carboxylate], the 50% inhibitory concentration (IC50) in experiment [1] and in experiment [2] was below 10 nM throughout. For `COC(=O)N1CCC[C@@H](Nc2nc(N3CC(Oc4ccc(F)cc4)C3)nc3c2[S@+]([O-])CC3)C1` [Example 7, Methyl (3R)-3-(((5R)-2-(3-(4-Fluorophenoxy)azetidin-1-yl)-5-oxido-6,7-dihydrothieno[3,2-d]pyrimidin-4-yl)amino)piperidine-1-carboxylate], the concentration for half-maximal inhibition (IC50) in experiment [1] and in experiment [2] was below 10 nM each time. As to `COC(=O)N1CCC[C@H](Nc2nc(N3CC(Oc4ccc(F)cc4)C3)nc3c2[S@+]([O-])CC3)C1` [Example 8, Methyl (3S)-3-(((5R)-2-(3-(4-Fluorophenoxy)azetidin-1-yl)-5-oxido-6,7-dihydrothieno[3,2-d]pyrimidin-4-yl)amino)piperidine-1-carboxylate], the IC50 in experiment [1] and in experiment [2] was below 10 nM each time.

Turning to `CC1(Nc2nc(N3CC(c4ccccn4)C3)nc3c2[S@+]([O-])CC3)CCC1` [Example 15, (R)-4-((1-Methylcyclobutyl)amino)-2-(3-(pyridin-2-yl)azetidin-1-yl)-6,7-dihydrothieno[3,2-d]pyrimidine 5-oxide], the IC50 in experiment [1] and in experiment [2] was below 10 nM in each case. `CC1(Nc2nc(N3CC(c4cccnc4)C3)nc3c2[S@+]([O-])CC3)CCC1` [Example 16, (R)-4-((1-Methylcyclobutyl)amino)-2-(3-(pyridin-3-yl)azetidin-1-yl)-6,7-dihydrothieno[3,2-d]pyrimidine 5-oxide]: the IC50 in experiment [1] and in experiment [2] was 10 to 50 nM throughout.

The values above are taken from patent US11292799B2, “Substituted azetidine dihydrothienopyrimidines and their use as phosphodiesterase inhibitors” (UNION therapeutics A/S, priority 2017, dated 2022).
